# Test results as given in PubChem BioAssay (NCI).
#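 Assay format: 96-well plates, 48-hour exposure. TGI: concentration producing complete growth inhibition.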
# Assays:
# Assay in all cases: NCI anticancer screen, dose series, 48 h
# [1] = tested on: OVCAR-8 ovarian
# [2] = tested on: DMS 114 small cell lung
# [3] = tested on: SR leukemia
# [4] = tested on: NCI-H460 lung
# [5] = tested on: HOP-18 NSCLC
# [6] = tested on: IGROV1 ovarian
# [7] = tested on: LXFL 529 NSCLC
# [8] = tested on: MOLT-4 leukemia
# [9] = tested on: SK-MEL-28 melanoma
# [10] = tested on: ACHN renal
# [11] = tested on: HCT-15 colon
# [12] = tested on: HL-60(TB) leukemia
# [13] = tested on: RXF 393 renal
# [14] = tested on: SK-MEL-5 melanoma
# [15] = tested on: M19-MEL melanoma
# [16] = tested on: RXF-631 renal
# [17] = tested on: KM20L2 colon
# [18] = tested on: NCI-H522 lung
# [19] = tested on: SF-539 CNS
# [20] = tested on: CCRF-CEM leukemia
# [21] = tested on: SNB-75 CNS
# [22] = tested on: M14 melanoma
# [23] = tested on: A549 NSCLC
# [24] = tested on: OVCAR-4 ovarian
# [25] = tested on: HCC-2998 colon
# [26] = tested on: EKVX NSCLC
# [27] = tested on: SF-295 CNS
# [28] = tested on: U251 CNS
# [29] = tested on: UACC-257 melanoma
# [30] = tested on: A498 renal
# [31] = tested on: OVCAR-5 ovarian
# [32] = tested on: UACC-62 melanoma
# [33] = tested on: RPMI-8226 leukemia
# [34] = tested on: DLD-1 colon
# [35] = tested on: OVCAR-3 ovarian
# [36] = tested on: COLO 205 colon
# [37] = tested on: HCT-116 colon
# [38] = tested on: K-562 leukemia
# [39] = tested on: 786-0 renal
# [40] = tested on: HT29 colon
# [41] = tested on: MALME-3M melanoma
# [42] = tested on: SF-268 CNS
# [43] = tested on: HOP-62 NSCLC
# [44] = tested on: SN12C renal
# [45] = tested on: SW-620 colon
# [46] = tested on: NCI-H23 lung
# [47] = tested on: KM12 colon
# [48] = tested on: UO-31 renal
# [49] = tested on: HOP-92 NSCLC
# [50] = tested on: SNB-78 CNS
# [51] = tested on: SK-MEL-2 melanoma
# [52] = tested on: TK-10 renal
# [53] = tested on: LOX IMVI melanoma
# [54] = tested on: CAKI-1 renal
# [55] = tested on: NCI-H226 lung
# [56] = tested on: SNB-19 CNS
# [57] = tested on: DMS 273 small cell lung
smiles,measurement,setting,value
CC1=C(Cl)C=CP(=O)(OC(C)C)C1 (stereo not given),TGI,[1],> 100 µM
same,TGI,[2],> 100 µM
same,TGI,[3],> 100 µM
same,TGI,[4],> 100 µM
same,TGI,[5],> 100 µM
same,TGI,[6],> 100 µM
same,TGI,[7],> 100 µM
same,TGI,[8],> 100 µM
same,TGI,[9],> 100 µM
same,TGI,[10],> 100 µM
same,TGI,[11],> 100 µM
same,TGI,[12],> 100 µM
same,TGI,[13],> 100 µM
same,TGI,[14],> 100 µM
same,TGI,[15],> 100 µM
same,TGI,[16],> 100 µM
same,TGI,[17],> 100 µM
same,TGI,[18],87.7 µM
same,TGI,[19],> 100 µM
same,TGI,[20],> 100 µM
same,TGI,[21],47.3 µM
same,TGI,[22],> 100 µM
same,TGI,[23],> 100 µM
same,TGI,[24],> 100 µM
same,TGI,[25],> 100 µM
same,TGI,[26],> 100 µM
same,TGI,[27],> 100 µM
same,TGI,[28],> 100 µM
same,TGI,[29],> 100 µM
same,TGI,[30],> 100 µM
same,TGI,[31],> 100 µM
same,TGI,[32],> 100 µM
same,TGI,[33],> 100 µM
same,TGI,[34],> 100 µM
same,TGI,[35],> 100 µM
same,TGI,[36],> 100 µM
same,TGI,[37],> 100 µM
same,TGI,[38],> 100 µM
same,TGI,[39],> 100 µM
same,TGI,[40],> 100 µM
same,TGI,[41],> 100 µM
same,TGI,[42],> 100 µM
same,TGI,[43],> 100 µM
same,TGI,[44],> 100 µM
same,TGI,[45],> 100 µM
same,TGI,[46],> 100 µM
same,TGI,[47],> 100 µM
same,TGI,[48],> 100 µM
same,TGI,[49],> 100 µM
same,TGI,[50],> 100 µM
same,TGI,[51],> 100 µM
same,TGI,[52],> 100 µM
Cc1ccc(NC(=S)SCCC(=O)O)cc1,TGI,[1],> 100 µM
same,TGI,[2],> 100 µM
same,TGI,[3],> 100 µM
same,TGI,[4],> 100 µM
same,TGI,[53],> 100 µM
same,TGI,[7],> 100 µM
same,TGI,[8],> 100 µM
same,TGI,[9],> 100 µM
same,TGI,[10],> 100 µM
same,TGI,[11],> 100 µM
same,TGI,[12],> 100 µM
same,TGI,[54],> 100 µM
same,TGI,[13],> 100 µM
same,TGI,[16],> 100 µM
same,TGI,[55],> 100 µM
same,TGI,[17],> 100 µM
same,TGI,[18],> 100 µM
same,TGI,[19],> 100 µM
same,TGI,[20],> 100 µM
same,TGI,[22],> 100 µM
same,TGI,[23],> 100 µM
same,TGI,[24],> 100 µM
same,TGI,[25],> 100 µM
same,TGI,[56],> 100 µM
same,TGI,[26],> 100 µM
same,TGI,[27],> 100 µM
same,TGI,[28],> 100 µM
same,TGI,[29],> 100 µM
same,TGI,[30],> 100 µM
same,TGI,[31],> 100 µM
same,TGI,[33],> 100 µM
same,TGI,[35],> 100 µM
same,TGI,[36],> 100 µM
same,TGI,[37],> 100 µM
same,TGI,[38],> 100 µM
same,TGI,[57],> 100 µM
same,TGI,[39],> 100 µM
same,TGI,[40],> 100 µM
same,TGI,[42],> 100 µM
same,TGI,[43],> 100 µM
same,TGI,[44],> 100 µM
same,TGI,[45],> 100 µM
same,TGI,[46],> 100 µM
same,TGI,[47],> 100 µM
same,TGI,[48],> 100 µM
same,TGI,[50],> 100 µM
same,TGI,[51],> 100 µM
same,TGI,[52],> 100 µM
